Results: patent US9521846B2, “Template-fixed peptidomimetics with antimicrobial activity” (priority 2006, dated 2016)
Converted amounts (≈) assume the structure as drawn. Non-standard residues stand in square brackets, D forms with d. Residues, ends and D or L forms follow the SMILES beside them. Ala(cPr) = N[C@@H](CC1CC1)C(=O)O; Cha = N[C@@H](CC1CCCCC1)C(=O)O; Chg = N[C@H](C(=O)O)C1CCCCC1; Tle = CC(C)(C)[C@H](N)C(=O)O; dDab = NCC[C@@H](N)C(=O)O; Nle = CCCC[C@H](N)C(=O)O; Orn = NCCC[C@H](N)C(=O)O; Dab = NCC[C@H](N)C(=O)O

Experiments:
[1] = test system: human red blood cells (hRBC); test: Hemolysis; type: cell-based; details: 100
[2] = test system: HELA cells (Acc57); test: Cytotoxicity assay, MTT reduction (LC 50, GI 50); type: cell-based
Outline: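 HeLa cells seeded at 7.0×10^3 cells/well, grown 24 h, then exposed to peptides at 12.5, 25 and 50 μM in triplicate for 48 h at 37 °C; MTT (0.5 mg/ml, 2 h), A595 read. Percent growth was taken relative to time-zero plates; LC50 and GI50 were interpolated by linear trend at −50% and 50% growth.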

[3] = test system: Pseudomonas aeruginosa P1021903; type: cell-based; details: P1021903
Outline: (§1)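 Antibacterial activity by modified NCCLS broth microdilution in Mueller-Hinton broth + 0.02% BSA. Inoculum was about 10^6 CFU/ml before 1:1 mixing with two-fold serial peptide dilutions.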

[4] = test system: Pseudomonas aeruginosa P1021913; type: cell-based; details: P1021913
Outline: as §1

[5] = test system: Pseudomonas aeruginosa IMP 1 Livermore 3140; type: cell-based; details: IMP 1 Livermore 3140
Outline: as §1

[6] = test system: Pseudomonas aeruginosa P8191900; type: cell-based; details: P8191900
Outline: as §1

[7] = test system: P. aeruginosa ATCC 27853; type: cell-based, Pseudomonas aeruginosa; details: ATCC 27853
Outline: as §1

[8] = test system: P. aeruginosa

Row | Compound | MIC P. aeruginosa P1021903 [3] | MIC P. aeruginosa P1021913 [4] | MIC P. aeruginosa IMP1 Livermore 3140 [5] | MIC P. aeruginosa P8191900 [6] | MIC P. aeruginosa ATCC 27853 [7] | Average MIC [8] | Hemolysis at 100 μg/ml [1] | Cytotoxicity GI50 Hela cells [2]
1 | CCCC[C@@H]1NC(=O)[C@H](Cc2c[nH]c3ccccc23)NC(=O)[C@H]([C@@H](C)O)NC(=O)[C@@H]2CCCN2C(=O)[C@H]2CCCN2C(=O)[C@H](CCN)NC(=O)[C@H](C)NC(=O)[C@H](CCN)NC(=O)[C@H](CCN)NC(=O)[C@H](Cc2c[nH]c3ccccc23)NC(=O)[C@H](CCN)NC(=O)[C@H](CCN)NC(=O)[C@H](CCCCN)NC(=O)[C@H](CCN)NC1=O [Example 31] (cyclo(TW[Nle][Dab]K[Dab][Dab]W[Dab][Dab]A[Dab][dP]P)) | 0.40 µg/mL (≈ 0.253 µM) | 0.16 µg/mL (≈ 0.101 µM) | 0.24 µg/mL (≈ 0.152 µM) | 0.16 µg/mL (≈ 0.101 µM) | 0.03 µg/mL (≈ 0.019 µM) | 0.20 µg/mL | 0.5% | 50 µM
2 | C[C@@H]1NC(=O)[C@H](CCN)NC(=O)[C@H](CCN)NC(=O)[C@H](Cc2c[nH]c3ccccc23)NC(=O)[C@H](CCN)NC(=O)[C@H](CCN)NC(=O)[C@H](CCCCN)NC(=O)[C@H](CCN)NC(=O)[C@H](C2CCCCC2)NC(=O)[C@H](Cc2c[nH]c3ccccc23)NC(=O)[C@H]([C@@H](C)O)NC(=O)[C@@H]2CCCN2C(=O)[C@H]2CCCN2C(=O)[C@H](CCN)NC1=O [Example 33] (cyclo(TW[Chg][Dab]K[Dab][Dab]W[Dab][Dab]A[Dab][dP]P)) | 0.29 µg/mL (≈ 0.18 µM) | 0.31 µg/mL (≈ 0.193 µM) | 0.43 µg/mL (≈ 0.268 µM) | 0.18 µg/mL (≈ 0.112 µM) | 0.05 µg/mL (≈ 0.0311 µM) | 0.25 µg/mL | 0.1% | 50 µM
3 | C[C@@H]1NC(=O)[C@H](CCN)NC(=O)[C@H](CCN)NC(=O)[C@H](Cc2c[nH]c3ccccc23)NC(=O)[C@H](CCN)NC(=O)[C@H](CCN)NC(=O)[C@H](CCCCN)NC(=O)[C@H](CCN)NC(=O)[C@H](CC2CCCCC2)NC(=O)[C@H](Cc2c[nH]c3ccccc23)NC(=O)[C@H]([C@@H](C)O)NC(=O)[C@@H]2CCCN2C(=O)[C@H]2CCCN2C(=O)[C@H](CCN)NC1=O [Example 34] (cyclo(TW[Cha][Dab]K[Dab][Dab]W[Dab][Dab]A[Dab][dP]P)) | 0.29 µg/mL (≈ 0.179 µM) | 0.48 µg/mL (≈ 0.296 µM) | 0.60 µg/mL (≈ 0.37 µM) | 0.24 µg/mL (≈ 0.148 µM) | 0.05 µg/mL (≈ 0.0308 µM) | 0.33 µg/mL | 0% | 50 µM
4 | CC[C@H](C)[C@@H]1NC(=O)[C@H](Cc2c[nH]c3ccccc23)NC(=O)[C@H]([C@@H](C)O)NC(=O)[C@@H]2CCCN2C(=O)[C@H]2CCCN2C(=O)[C@H](CCN)NC(=O)[C@H](C(C)(C)C)NC(=O)[C@H](CCN)NC(=O)[C@H](CCN)NC(=O)[C@H](Cc2c[nH]c3ccccc23)NC(=O)[C@H](CCN)NC(=O)[C@H](CCN)NC(=O)[C@H](CCCCN)NC(=O)[C@H](CCN)NC1=O [Example 36] (cyclo(TWI[Dab]K[Dab][Dab]W[Dab][Dab][Tle][Dab][dP]P)) | 0.18 µg/mL (≈ 0.111 µM) | 0.24 µg/mL (≈ 0.148 µM) | 0.43 µg/mL (≈ 0.265 µM) | 0.18 µg/mL (≈ 0.111 µM) | 0.06 µg/mL (≈ 0.037 µM) | 0.22 µg/mL | 0.1% | 50 µM
5 | CC[C@H](C)[C@@H]1NC(=O)[C@H](Cc2c[nH]c3ccccc23)NC(=O)[C@H]([C@@H](C)O)NC(=O)[C@@H]2CCCN2C(=O)[C@H]2CCCN2C(=O)[C@H](CCN)NC(=O)[C@H](CC2CC2)NC(=O)[C@H](CCN)NC(=O)[C@H](CCN)NC(=O)[C@H](Cc2c[nH]c3ccccc23)NC(=O)[C@H](CCN)NC(=O)[C@H](CCN)NC(=O)[C@H](CCCCN)NC(=O)[C@H](CCN)NC1=O [Example 37] (cyclo(TWI[Dab]K[Dab][Dab]W[Dab][Dab][Ala(cPr)][Dab][dP]P)) | 0.31 µg/mL (≈ 0.191 µM) | 0.37 µg/mL (≈ 0.228 µM) | 1.17 µg/mL (≈ 0.722 µM) | 0.18 µg/mL (≈ 0.111 µM) | 0.06 µg/mL (≈ 0.037 µM) | 0.42 µg/mL | 0.5% | 50 µM
6 | CC[C@H](C)[C@@H]1NC(=O)[C@H](Cc2c[nH]c3ccccc23)NC(=O)[C@H]([C@@H](C)O)NC(=O)[C@@H]2CCCN2C(=O)[C@H]2CCCN2C(=O)[C@H](CCN)NC(=O)[C@H](CC(N)=O)NC(=O)[C@H](CCN)NC(=O)[C@H](CCN)NC(=O)[C@H](Cc2c[nH]c3ccccc23)NC(=O)[C@H](CCN)NC(=O)[C@H](CCN)NC(=O)[C@H](CCCCN)NC(=O)[C@H](CCN)NC1=O [Example 38] (cyclo(TWI[Dab]K[Dab][Dab]W[Dab][Dab]N[Dab][dP]P)) | 0.17 µg/mL (≈ 0.105 µM) | 0.27 µg/mL (≈ 0.166 µM) | 1.06 µg/mL (≈ 0.653 µM) | 0.17 µg/mL (≈ 0.105 µM) | 0.09 µg/mL (≈ 0.0554 µM) | 0.35 µg/mL | 0.5% | 50 µM
7 | CC[C@H](C)[C@@H]1NC(=O)[C@H](Cc2c[nH]c3ccccc23)NC(=O)[C@H]([C@@H](C)O)NC(=O)[C@@H]2CCCN2C(=O)[C@H]2CCCN2C(=O)[C@H](CCN)NC(=O)[C@H](C)NC(=O)[C@H](CCN)NC(=O)[C@H](CCN)NC(=O)[C@H](Cc2c[nH]c3ccccc23)NC(=O)[C@H](CCC(N)=O)NC(=O)[C@H](CCN)NC(=O)[C@H](CCCCN)NC(=O)[C@H](CCN)NC1=O [Example 39] (cyclo(TWI[Dab]K[Dab]QW[Dab][Dab]A[Dab][dP]P)) | 0.31 µg/mL (≈ 0.193 µM) | 0.31 µg/mL (≈ 0.193 µM) | 0.75 µg/mL (≈ 0.466 µM) | 0.21 µg/mL (≈ 0.131 µM) | 0.13 µg/mL (≈ 0.0808 µM) | 0.34 µg/mL | 0.4% | 50 µM

The next lines start with results.

Row | MIC P. aeruginosa P1021903 [3] | MIC P. aeruginosa P1021913 [4] | MIC P. aeruginosa IMP1 Livermore 3140 [5] | MIC P. aeruginosa P8191900 [6] | MIC P. aeruginosa ATCC 27853 [7] | Average MIC [8] | Compound | Hemolysis at 100 μg/ml [1] | Cytotoxicity GI50 Hela cells [2]
8 | 0.03 µg/mL (≈ 0.019 µM) | 0.25 µg/mL (≈ 0.158 µM) | 0.25 µg/mL (≈ 0.158 µM) | 0.05 µg/mL (≈ 0.0316 µM) | 0.02 µg/mL (≈ 0.0127 µM) | 0.12 µg/mL | CC[C@H](C)[C@@H]1NC(=O)[C@H](Cc2c[nH]c3ccccc23)NC(=O)[C@H]([C@@H](C)O)NC(=O)[C@@H]2CCCN2C(=O)[C@H]2CCCN2C(=O)[C@H](CCN)NC(=O)[C@H](C)NC(=O)[C@H](CCN)NC(=O)[C@H](CCN)NC(=O)[C@H](Cc2c[nH]c3ccccc23)NC(=O)[C@H](CCN)NC(=O)[C@@H](CCN)NC(=O)[C@H](CCCCN)NC(=O)[C@H](CCN)NC1=O [Example 41] (cyclo(TWI[Dab]K[dDab][Dab]W[Dab][Dab]A[Dab][dP]P)) | 0.2% | 50 µM
9 | 0.125 µg/mL (≈ 0.0795 µM) | 0.50 µg/mL (≈ 0.318 µM) | 0.50 µg/mL (≈ 0.318 µM) | 0.06 µg/mL (≈ 0.0382 µM) | 0.25 µg/mL (≈ 0.159 µM) | 0.29 µg/mL | CC[C@H](C)[C@@H]1NC(=O)[C@H](Cc2ccc(O)cc2)NC(=O)[C@H](CC(=O)O)NC(=O)[C@@H]2CCCN2C(=O)[C@H]2CCCN2C(=O)[C@H](CCN)NC(=O)[C@H](C)NC(=O)[C@H](CCN)NC(=O)[C@H](CCN)NC(=O)[C@H](Cc2c[nH]c3ccccc23)NC(=O)[C@H](CCN)NC(=O)[C@@H](CCN)NC(=O)[C@H](CCCCN)NC(=O)[C@H](CCN)NC1=O [Example 42] (cyclo(DYI[Dab]K[dDab][Dab]W[Dab][Dab]A[Dab][dP]P)) | 0.2% | 50 µM
10 | 0.125 µg/mL (≈ 0.0802 µM) | 2.00 µg/mL (≈ 1.28 µM) | 2.00 µg/mL (≈ 1.28 µM) | 0.50 µg/mL (≈ 0.321 µM) | 0.13 µg/mL (≈ 0.0834 µM) | 0.95 µg/mL | CC[C@H](C)[C@@H]1NC(=O)[C@H](Cc2ccc(O)cc2)NC(=O)[C@H](CC(=O)O)NC(=O)[C@@H]2CCCN2C(=O)[C@H]2CCCN2C(=O)[C@H](CCN)NC(=O)[C@H](C)NC(=O)[C@H](CCN)NC(=O)[C@H](CCN)NC(=O)[C@H](Cc2c[nH]c3ccccc23)NC(=O)[C@H](CCN)NC(=O)[C@@H](CCN)NC(=O)[C@H](CCCN)NC(=O)[C@H](CCN)NC1=O [Example 43] (cyclo(DYI[Dab][Orn][dDab][Dab]W[Dab][Dab]A[Dab][dP]P)) | 0.5% | 50 µM
11 | 0.50 µg/mL (≈ 0.305 µM) | 1.00 µg/mL (≈ 0.611 µM) | 1.00 µg/mL (≈ 0.611 µM) | 0.50 µg/mL (≈ 0.305 µM) | 0.25 µg/mL (≈ 0.153 µM) | 0.65 µg/mL | CC[C@H](C)[C@@H]1NC(=O)[C@H](Cc2c[nH]c3ccccc23)NC(=O)[C@H](CCC(=O)O)NC(=O)[C@@H]2CCCN2C(=O)[C@H]2CCCN2C(=O)[C@H](CCC(N)=O)NC(=O)[C@H](C)NC(=O)[C@H](CCN)NC(=O)[C@H](CCN)NC(=O)[C@H](Cc2c[nH]c3ccccc23)NC(=O)[C@H](CCN)NC(=O)[C@@H](CCN)NC(=O)[C@H](CCCCN)NC(=O)[C@H](CCN)NC1=O [Example 45] (cyclo(EWI[Dab]K[dDab][Dab]W[Dab][Dab]AQ[dP]P)) | 0.2% | 50 µM
